Results on 12 compounds are retold here after patent US20220339150A1, “ENDOCANNABINOID SYSTEM-TARGETING PRODRUGS AND THERAPEUTIC USES THEREOF” (priority 2021, published 2022).

Data set [1] can be described thus: Stability in aqueous solutions (sodium phosphate buffer, 37° C.). Format: physicochemical. Conditions: for Half-life in aqueous solution: Table 5; for Half-life in aqueous solution / half-life: aqueous buffer pH 6.8, 37° C., single determinations; for half-life: buffer, pH 6.8, Table 5, read-out: Half-life in aqueous solution (converted). The protocol:
[…] The solutions of prodrugs were prepared by adding 10 μL of stock solution (10 mg/mL in DMSO) to the preheated buffer. The solutions were stirred at a constant temperature of 37° C. At appropriate intervals, 75 μL of samples were mixed with 75 μL of MeOH and analyzed for remaining prodrug by HPLC.
The pseudo-first-order rate constants (kobs) and half-lives (t1/2) for the degradation of the prodrugs were determined from the linear slopes of the plots by taking the logarithm of the remaining prodrug over time. Equations: kobs=slope/−2.303 and t1/2=ln2/kobs.

Data set [2] concerns reconstructed human oral buccal epithelium cells (SkinEthic HOE, TR146 cells). The data set can be described thus: In vitro buccal permeability (SkinEthic human oral epithelium). Format: in vitro ADME. As to conditions: for Buccal permeation compared with parent cannabinoid (in words): 5% ethanol suspension; for Species making up the buccal flux (parent vs intact prodrug): Table 2; for Species making up the buccal flux (parent vs intact prodrug) / Species making up the buccal flux / formation of parent cannabinoid: remark in flux cell; for Flux compared with parent cannabinoid / Species making up the buccal flux / formation of parent cannabinoid / Flux (buccal): Table 4; for Flux compared with parent cannabinoid: buccal flux relative to parent; for Flux (buccal): suspension ca. 2 mg/ml in 5% EtOH/phosphate buffer pH 6.8, 37° C., receiver 15% HP-β-cyclodextrin. The protocol:
The in vitro permeability studies were carried out in commercial reconstructed human oral buccal epithelium cells (SkinEthic™ human oral epithelium). The SkinEthic™ HOE model is composed of TR146 cells (derived from a squamous cell carcinoma of the buccal mucosa) cultivated on an inert polycarbonate filter at the air-liquid interface in a chemically defined medium. This model forms an epithelial tissue devoid of stratum corneum, resembling histologically to the mucosa of the oral cavity.
Upon receiving the cells, each insert (0.5 cm^2 or 0.33 cm^2) was placed in a plate containing 800 μL fresh medium at room temperature. The culture dishes were placed in the incubator at 37° C., 5% CO2, and saturated humidity overnight. Next day, the inserts were placed in a plate containing 800 μL 15% HP-β-cyclodextrin in H2O. The prodrugs were dissolved in 100% EtOH (5% (V/V) final conc.), and then sodium phosphate buffer solution (50 mM, pH 6.8, isotonic, 37° C.) was added (95% (V/V) final conc.). 400 μL of the prodrugs were applied as suspensions (ca. 2 mg/ml). The plates were stirred gently at 37° C. At appropriate intervals, the receptor compartment was sampled (100 μL) and replenished with fresh […] solution each time. The samples were mixed with 100 μL of MeOH, and analyzed for drug (both the parent cannabinoid and the prodrug) by HPLC-MS.
The buccal flux-values for the rate of delivery of drugs were determined from Fick's law of diffusion.

Data set [3] is described as follows: Stability in 80% human plasma (serum). As to conditions: 80% human serum (pH 7.4) at 37° C.; for Half-life in serum: Table 5. Format: in vitro ADME. Here is the method:
The rates of the degradation of the prodrugs were determined in 80% human serum (pH 7.4) at 37° C. as an indication of the susceptibility of prodrugs to undergo bioconversion after reaching the circulation. The reactions were initiated by adding the first 10 μL of the prodrug stock solution (10 mg/mL in DMSO) to 200 μL preheated sodium phosphate buffer solution (50 mM, pH 7.4, ionic strength 0.5), and then adding 800 μL preheated human serum. The solutions were stirred at a constant temperature of 37° C. At appropriate intervals, 50 μL of samples were mixed with 150 μL of ice-cold MeOH. After immediate mixing and centrifugation (5 min at 14.000 rpm), the resulting clear supernatant was analyzed for the remaining prodrug by HPLC.

Data set [4] can be described thus: Metabolic stability in human liver microsomes. In kind it is in vitro ADME. Conditions: for Half-life in human liver microsomes (single determinations) / microsomal CLint: Table 5. Here is the method: The prodrugs were incubated with the human liver microsomes at 37° C. as an indication of the susceptibility of prodrugs to undergo bioconversion in the liver. The reactions were initiated by adding 1.5 μL of the prodrug stock solution (10 mg/mL in DMSO) to a preheated solution consisting of 748.5 μL potassium phosphate buffer solution (20 mM, pH 7.4, ionic strength 0.5), 200 μL NADPH, and 50 μLhuman liver microsomes (mixed gender, 0.5 ml at 20 mg/mL). The solutions were stirred at a constant temperature of 37° C. At appropriate intervals, 50 μLof samples were mixed with 100 μL of ice-cold MeOH. After immediate mixing and centrifugation (5 min at 14.000 rpm), the resulting clear supernatant was analyzed for the remaining prodrug by HPLC.

Setting [5] is: both sexes, human, microsomes, pH 7.4, Table 5, average of determinations, read-out: Half-life in human liver microsomes (avg.) (converted).
[6] abbreviates: both sexes, human, microsomes, pH 7.4, Table 5, 37° C., NADPH, read-out: Half-life in human liver microsomes (single determinations) (converted).
Setting [7] is: both sexes, human, microsomes, pH 7.4.

Entries after “also recorded” stand apart in the source; their conditions may differ. Where two headings read alike, the source gives them in different places.

For `C=C(C)[C@@H]1CCC(C)=C[C@H]1c1c(OC(=O)C2CCNC2)cc(CCCCC)cc1OC(=O)C1CCNC1` (stereo partly drawn) [CBDp24, (1′R,2′R)-5′-methyl-4-pentyl-2′-(prop-1-en-2-yl)-1′,2′,3′,4′-tetrahydro-[1,1′-biphenyl]-2,6-diyl bis(pyrrolidine-3-carboxylate)], the “Stability in standard and aqueous solutions (in words)” value in data set [1] (Table 3 footnote e) was “^e Could not be determined due to fast degradation in standard and aqueous solutions,”. Further, in data set [2], the “Buccal permeation compared with parent cannabinoid (in words)” value was “better than that of CBD; also recorded: superior when compared to CBD and other prodrugs”; the “Species making up the buccal flux (parent vs intact prodrug)” value is on record as “mostly intact”.
With `CCCCCc1cc(OC(=O)N2CCN(C)CC2)c(C/C=C(\C)CCC=C(C)C)c(OC(=O)N2CCN(C)CC2)c1` [CBGp3, (E)-2-(3,7-dimethylocta-2,6-dien-1-yl)-5-pentyl-1,3-phenylene bis(4-methylpiperazine-1-carboxylate)], the Half-life in serum result in data set [3] was “No degradation”. For the same compound, in data set [1], the Half-life in aqueous solution stood at 0.38 h and the half-life is 0.28 h. In addition, the half-life at 15 µg/mL in data set [4] (setting [5]) was 1.9 h. Moreover, in data set [2], the “Flux compared with parent cannabinoid” value is 2.6-times better, the “Species making up the buccal flux / formation of parent cannabinoid” value was “NO significant formation of CBGp2 or” and the “Flux (buccal)” value is 30.60 ± 2.02 (prodrug) nmol/cm^2/h. The “Flux compared with parent cannabinoid” value in data set [2] (listed as bis-methylpiperazine carbamate prodrug of CBG) was 2.6 times.
On to `CCCCCc1cc(OC(=O)N2CCN(C)CC2)c2c(c1)OC(C)(C)[C@@H]1CCC(C)=C[C@@H]21` [THCp1, (6aR,10aR)-6,6,9-trimethyl-3-pentyl-6a,7,8,10a-tetrahydro-6H-benzo[c]chromen-1-yl 4-methylpiperazine-1-carboxylate], for which, in data set [3], the Half-life in serum result was “No degradation”. Also, in data set [1], the Half-life in aqueous solution is 0.41 h and the half-life is 0.66 h. This compound also yielded a Half-life in human liver microsomes (single determinations) in data set [4] (37° C., NADPH) of 5.02 h. Also, in data set [4] (setting [6]), the half-life is 2.64 h. In addition, the half-life in data set [4] (setting [5]) was 3.83 h. In data set [2], the “Flux compared with parent cannabinoid” value is given as “No improvement”, the “Species making up the buccal flux / formation of parent cannabinoid” value is “NO significant formation of THC” and the “Flux (buccal)” value was 19.22 ± 0.29 (prodrug) nmol/cm^2/h.
Turning to `CCCCCc1cc(OC(=O)N2CCN(C)CC2)c2c(c1)OC(C)(CCC=C(C)C)C=C2` (stereo not shown) [CBCp1, 2-methyl-2-(4-methylpent-3-en-1-yl)-7-pentyl-2H-chromen-5-yl4-methylpiperazine-1-carboxylate], the Half-life in serum result in data set [3] is reported as “stable for 6 hrs”. The same compound registered a Half-life in human liver microsomes (single determinations) in data set [4] (37° C., NADPH) of 3.13 h. The half-life at 15 µg/mL in data set [4] (setting [6]) is 4.18 h. Besides, the half-life at 15 µg/mL in data set [4] (setting [5]) was 3.65 h. Further, in data set [2], the “Flux compared with parent cannabinoid” value is listed as “No improvement”, the “Species making up the buccal flux / formation of parent cannabinoid” value is recorded as “NO significant formation of CBC” and the “Flux (buccal)” value was 15.88 ± 0.70 (prodrug) nmol/cm^2/h.
In data set [4] (setting [7]), `CCCCCc1cc(O)c(C/C=C(\C)CCC=C(C)C)c(O)c1` [CBG, Cannabigerol, reference compound] returned a microsomal CLint at 15 µg/mL of 7.18 µL/min/mg. For the same compound, the half-life at 15 µg/mL in data set [4] (both sexes, human, microsomes, pH 7.4, Half-life in human liver microsomes (avg.)) is 1.61 h; in data set [4] (both sexes, human, microsomes, pH 7.4, Half-life in human liver microsomes (single determinations)), 1.79 h. The “Kobs (based on microsomes Half-life)” value in data set [4] (human, microsomes) worked out at 0.43.
`C=C(C)[C@@H]1CCC(C)=C[C@H]1c1c(OC(=O)N2CCCCC2)cc(CCCCC)cc1OC(=O)N1CCCCC1` [CBDp18, (1′R,2′R)-5′-methyl-4-pentyl-2′-(prop-1-en-2-yl)-1′,2′,3′,4′-tetrahydro-[1,1′-biphenyl]-2,6-diyl bis(piperidine-1-carboxylate)]: the “Species making up the buccal flux (parent vs intact prodrug)” value in data set [2] is given as “only intact prodrug”.
In turn, `CCCCCc1cc(OC(=O)C2CCNC2)c2c(c1)OC(C)(C)[C@@H]1CCC(C)=C[C@@H]21` (stereo partly drawn) [THCp2, (6aR,10aR)-6,6,9-trimethyl-3-pentyl-6a,7,8,10a-tetrahydro-6H-benzo[c]chromen-1-yl pyrrolidine-3-carboxylate] registered a Half-life in serum in data set [3] of 0.43 h. Besides, the half-life in data set [3] (human, serum, pH 7.4, Table 5) is 0.42 h; in data set [1], 0.49 h; in data set [4] (setting [6]), 2.09 h; in data set [4] (setting [5]) it was 2.44 h. For the same compound, the Half-life in aqueous solution in data set [1] came to 0.46 h. In data set [4] (37° C., NADPH), this compound registered a Half-life in human liver microsomes (single determinations) of 2.79 h.
On to `CCCCCc1cc(OC(=O)N2CCNCC2)c2c(c1)OC(C)(CCC=C(C)C)C=C2` (stereo not shown) [CBCp3, 2-methyl-2-(4-methylpent-3-en-1-yl)-7-pentyl-2H-chromen-5-yl piperazine-1-carboxylate], for which, in data set [3], the Half-life in serum entry is “stable for 6 hrs”. Further, the half-life at 15 µg/mL in data set [4] (setting [5]) is 14.9 h. For the same compound, in data set [2], the “Flux compared with parent cannabinoid” value is listed as “No improvement”, the “Species making up the buccal flux / formation of parent cannabinoid” value was “NO significant formation of CBC” and the “Flux (buccal)” value is recorded as 5.74 ± 0.51 (prodrug) nmol/cm^2/h.
In the case of `CCCCCc1cc(O)c2c(c1)OC(C)(CCC=C(C)C)C=C2` (stereo not shown) [CBC, Cannabichromene, reference compound], the half-life is 1.93 h in data set [4] (setting [6]) and 1.86 h in data set [4] (setting [5]). Further, the intrinsic clearance (microsomal CLint) in data set [4] (setting [7]) came out at 6.21 µL/min/mg. Also, in data set [2], the “Flux (buccal)” value worked out at 27.87 ± 2.46 nmol/cm^2/h.
As to `C=C(C)[C@@H]1CCC(C)=C[C@H]1c1c(O)cc(CCCCC)cc1OC(=O)N1CCNCC1` [CBDp21, (1′R,2′R)-6-hydroxy-5′-methyl-4-pentyl-2′-(prop-1-en-2-yl)-1′,2′,3′,4′-tetrahydro-[1,1′-biphenyl]-2-yl piperazine-1-carboxylate], in data set [2], the “Buccal permeation compared with parent cannabinoid (in words)” value is “better than that of CBD” and the “Species making up the buccal flux (parent vs intact prodrug)” value is on record as “only intact prodrug”.
For the compound `C=C(C)[C@@H]1CCC(C)=C[C@H]1c1c(O)cc(CCCCC)cc1OC(=O)N1CCCCC1` [CBDp17, (1′R,2′R)-6-hydroxy-5′-methyl-4-pentyl-2′-(prop-1-en-2-yl)-1′,2′,3′,4′-tetrahydro-[1,1′-biphenyl]-2-yl piperidine-1-carboxylate], the “Species making up the buccal flux (parent vs intact prodrug)” value in data set [2] is “only intact prodrug”.
As to `CCCCCc1cc(O)c2c(c1)OC(C)(C)[C@@H]1CCC(C)=C[C@@H]21` [THC, Δ9-Tetrahydrocannabinol, reference compound], the half-life is 0.17 h in data set [4] (setting [6]) and 0.18 h in data set [4] (setting [5]). This compound also registered a microsomal CLint in data set [4] (setting [7]) of 64.2 µL/min/mg. The “Flux (buccal)” value in data set [2] was found to be 19.65 ± 0.36 nmol/cm^2/h.
